From the supplement of paper PMC10307832

Assays:
Assay in all cases: relative viability (nuclei count vs DMSO), 5 days (fraction); higher = more cells survive
NCI-H838 = test system: NCI-H838
In short: (§1)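 Dosing by pin tool came one day after lung cancer cell lines were seeded in 1536-well plates, using either one drug or a fixed anchor-drug dose plus five library-drug doses (not always all listed) in √10 steps. After 5 days, nuclei were counted on 4× images. Relative viability is treated-well nuclei count divided by vehicle-well nuclei count, and values are medians of duplicate plates.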

HARA = test system: HARA
In short: as §1

BEN = test system: BEN
In short: as §1

NCI-H441 = test system: NCI-H441
In short: as §1

NCI-H2126 = test system: NCI-H2126
In short: as §1

NCI-H23 = test system: NCI-H23
In short: as §1

NCI-H2023 = test system: NCI-H2023
In short: as §1

NCI-H3122 = test system: NCI-H3122
In short: as §1

NCI-H2347 = test system: NCI-H2347
In short: as §1

LCLC-103H = test system: LCLC-103H
In short: as §1

NCI-H647 = test system: NCI-H647
In short: as §1

201T = test system: 201T
In short: as §1

NCI-H596 = test system: NCI-H596
In short: as §1

LOU-NH91 = test system: LOU-NH91
In short: as §1

EMC-BAC-2 = test system: EMC-BAC-2
In short: as §1

NCI-H1666 = test system: NCI-H1666
In short: as §1

NCI-H2009 = test system: NCI-H2009
In short: as §1

NCI-H2087 = test system: NCI-H2087
In short: as §1

NCI-H727 = test system: NCI-H727
In short: as §1

NCI-H1395 = test system: NCI-H1395
In short: as §1

HCC-44 = test system: HCC-44
In short: as §1

NCI-H650 = test system: NCI-H650
In short: as §1

NCI-H1993 = test system: NCI-H1993
In short: as §1

Structure (SMILES): CC1(C)CCC(c2ccc(Cl)cc2)=C(CN2CCN(c3ccc(C(=O)NS(=O)(=O)c4ccc(N[C@H](CCN5CCOCC5)CSc5ccccc5)c(S(=O)(=O)C(F)(F)F)c4)cc3)CC2)C1 [Navitoclax] + O=C(c1cc(Cc2n[nH]c(=O)c3ccccc23)ccc1F)N1CCN(C(=O)C2CC2)CC1 [Olaparib] (partner 8 µM)
- relative viability (NCI-H838; first compound 0.005 µM): 0.775
- relative viability (NCI-H838; first compound 0.01581 µM): 0.818
- relative viability (NCI-H838; first compound 0.05 µM): 0.834
- relative viability (NCI-H838; first compound 0.1581 µM): 0.775
- relative viability (NCI-H838; first compound 0.5 µM): 0.768
- relative viability (HARA; first compound 0.005 µM): 0.763
- relative viability (HARA; first compound 0.01581 µM): 0.752
- relative viability (HARA; first compound 0.05 µM): 0.579
- relative viability (HARA; first compound 0.1581 µM): 0.789
- relative viability (HARA; first compound 0.5 µM): 0.875
- relative viability (BEN; first compound 0.005 µM): 1.07
- relative viability (BEN; first compound 0.01581 µM): 1.06
- relative viability (BEN; first compound 0.05 µM): 0.862
- relative viability (BEN; first compound 0.1581 µM): 1.05
- relative viability (BEN; first compound 0.5 µM): 0.595
- relative viability (NCI-H441; first compound 0.005 µM): 0.529
- relative viability (NCI-H441; first compound 0.01581 µM): 0.528
- relative viability (NCI-H441; first compound 0.05 µM): 0.627
- relative viability (NCI-H441; first compound 0.1581 µM): 0.429
- relative viability (NCI-H441; first compound 0.5 µM): 0.5
- relative viability (NCI-H2126; first compound 0.005 µM): 0.912
- relative viability (NCI-H2126; first compound 0.01581 µM): 0.994
- relative viability (NCI-H2126; first compound 0.05 µM): 0.847
- relative viability (NCI-H2126; first compound 0.1581 µM): 0.86
- relative viability (NCI-H2126; first compound 0.5 µM): 0.9
- relative viability (NCI-H23; first compound 0.005 µM): 0.328
- relative viability (NCI-H23; first compound 0.01581 µM): 0.301
- relative viability (NCI-H23; first compound 0.05 µM): 0.272
- relative viability (NCI-H23; first compound 0.1581 µM): 0.291
- relative viability (NCI-H23; first compound 0.5 µM): 0.343
- relative viability (NCI-H2023; first compound 0.005 µM): 0.445
- relative viability (NCI-H2023; first compound 0.01581 µM): 0.47
- relative viability (NCI-H2023; first compound 0.05 µM): 0.534
- relative viability (NCI-H2023; first compound 0.1581 µM): 0.442
- relative viability (NCI-H2023; first compound 0.5 µM): 0.496
- relative viability (NCI-H3122; first compound 0.005 µM): 0.605
- relative viability (NCI-H3122; first compound 0.01581 µM): 0.577
- relative viability (NCI-H3122; first compound 0.05 µM): 0.576
- relative viability (NCI-H3122; first compound 0.1581 µM): 0.655
- relative viability (NCI-H3122; first compound 0.5 µM): 0.597
- relative viability (NCI-H2347; first compound 0.005 µM): 0.558
- relative viability (NCI-H2347; first compound 0.01581 µM): 0.585
- relative viability (NCI-H2347; first compound 0.05 µM): 0.537
- relative viability (NCI-H2347; first compound 0.1581 µM): 0.61
- relative viability (NCI-H2347; first compound 0.5 µM): 0.51
- relative viability (LCLC-103H; first compound 0.005 µM): 0.715
- relative viability (LCLC-103H; first compound 0.01581 µM): 0.817
- relative viability (LCLC-103H; first compound 0.05 µM): 0.729
- relative viability (LCLC-103H; first compound 0.1581 µM): 0.738
- relative viability (LCLC-103H; first compound 0.5 µM): 0.705
- relative viability (NCI-H647; first compound 0.005 µM): 0.47
- relative viability (NCI-H647; first compound 0.01581 µM): 0.605
- relative viability (NCI-H647; first compound 0.05 µM): 0.498
- relative viability (NCI-H647; first compound 0.1581 µM): 0.471
- relative viability (NCI-H647; first compound 0.5 µM): 0.288
- relative viability (201T; first compound 0.005 µM): 0.829
- relative viability (201T; first compound 0.01581 µM): 0.871
- relative viability (201T; first compound 0.05 µM): 0.806
- relative viability (201T; first compound 0.1581 µM): 0.832
- relative viability (201T; first compound 0.5 µM): 0.85
- relative viability (NCI-H596; first compound 0.005 µM): 0.663
- relative viability (NCI-H596; first compound 0.01581 µM): 0.758
- relative viability (NCI-H596; first compound 0.05 µM): 0.533
- relative viability (NCI-H596; first compound 0.1581 µM): 0.598
- relative viability (NCI-H596; first compound 0.5 µM): 0.626
- relative viability (LOU-NH91; first compound 0.005 µM): 0.909
- relative viability (LOU-NH91; first compound 0.01581 µM): 0.928
- relative viability (LOU-NH91; first compound 0.05 µM): 0.697
- relative viability (LOU-NH91; first compound 0.1581 µM): 0.658
- relative viability (LOU-NH91; first compound 0.5 µM): 0.37
- relative viability (EMC-BAC-2; first compound 0.005 µM): 0.461
- relative viability (EMC-BAC-2; first compound 0.01581 µM): 0.483
- relative viability (EMC-BAC-2; first compound 0.05 µM): 0.456
- relative viability (EMC-BAC-2; first compound 0.1581 µM): 0.434
- relative viability (EMC-BAC-2; first compound 0.5 µM): 0.452
- relative viability (NCI-H1666; first compound 0.005 µM): 0.749
- relative viability (NCI-H1666; first compound 0.01581 µM): 0.71
- relative viability (NCI-H1666; first compound 0.05 µM): 0.683
- relative viability (NCI-H1666; first compound 0.1581 µM): 0.765
- relative viability (NCI-H1666; first compound 0.5 µM): 0.822
- relative viability (NCI-H2009; first compound 0.005 µM): 0.698
- relative viability (NCI-H2009; first compound 0.01581 µM): 0.692
- relative viability (NCI-H2009; first compound 0.05 µM): 0.691
- relative viability (NCI-H2009; first compound 0.1581 µM): 0.6
- relative viability (NCI-H2009; first compound 0.5 µM): 0.689
- relative viability (NCI-H2087; first compound 0.005 µM): 0.69
- relative viability (NCI-H2087; first compound 0.01581 µM): 0.632
- relative viability (NCI-H2087; first compound 0.1581 µM): 0.638
- relative viability (NCI-H2087; first compound 0.5 µM): 0.598
- relative viability (NCI-H727; first compound 0.005 µM): 0.774
- relative viability (NCI-H727; first compound 0.01581 µM): 0.769
- relative viability (NCI-H727; first compound 0.05 µM): 0.738
- relative viability (NCI-H727; first compound 0.1581 µM): 0.559
- relative viability (NCI-H727; first compound 0.5 µM): 0.721
- relative viability (NCI-H1395; first compound 0.005 µM): 0.456
- relative viability (NCI-H1395; first compound 0.01581 µM): 0.495
- relative viability (NCI-H1395; first compound 0.05 µM): 0.441
- relative viability (NCI-H1395; first compound 0.1581 µM): 0.428
- relative viability (NCI-H1395; first compound 0.5 µM): 0.473
- relative viability (HCC-44; first compound 0.005 µM): 0.971
- relative viability (HCC-44; first compound 0.01581 µM): 0.98
- relative viability (HCC-44; first compound 0.05 µM): 0.887
- relative viability (HCC-44; first compound 0.1581 µM): 0.943
- relative viability (HCC-44; first compound 0.5 µM): 0.932
- relative viability (NCI-H650; first compound 0.005 µM): 0.395
- relative viability (NCI-H650; first compound 0.01581 µM): 0.453
- relative viability (NCI-H650; first compound 0.05 µM): 0.35
- relative viability (NCI-H650; first compound 0.1581 µM): 0.362
- relative viability (NCI-H650; first compound 0.5 µM): 0.386
- relative viability (NCI-H1993; first compound 0.005 µM): 1.09
- relative viability (NCI-H1993; first compound 0.01581 µM): 1.32
- relative viability (NCI-H1993; first compound 0.05 µM): 0.936
- relative viability (NCI-H1993; first compound 0.1581 µM): 0.984
- relative viability (NCI-H1993; first compound 0.5 µM): 1.02
